In paper PMC10511043 (Cell Structure and Function, 2020):

Biological target: LCMV Z protein (Zabton-3 / Zabton FRET biosensor, trimeric tandem Z) (Lymphocytic choriomeningitis virus (strain Armstrong), UniProt P18541)
Sequence (P18541 whole entry, looked up): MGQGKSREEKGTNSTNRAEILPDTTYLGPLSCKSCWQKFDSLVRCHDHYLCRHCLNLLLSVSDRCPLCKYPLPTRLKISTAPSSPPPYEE

**Q.** For `Nc1nc(N)c2c3c(sc2n1)CN(Cc1ccccc1)CC3` [#4, 5,6,7,8-tetrahydro-7-(benzyl)-pyrido[4',3':4,5]thieno[2,3-d]pyrimidin-2,4-diamine], which “decrease of FRET/CFP emission ratio” value is on record?
**A.** Its value is “both of them decreased the FRET ratio in a concentration-dependent manner”.
